The target of data set [1] is T1, human β3-adrenergic receptor (Homo sapiens, UniProt P13945).
T1 construct: Full length β3 AR clones (402 amino acids) containing the last 6 amino acids of hβ3—AR are prepared; expressed in transfected cells; host or cells: CHO cells
Description: cAMP response (SPA kit) in CHO cells transfected with human β3 adrenergic receptor. The format is cell-based. Conditions: for EC50: CHO cells expressing human β3-AR, 10^-9 M to 10^-5 M, 30 min at 37° C., cAMP by SPA, read-out: EC50(β3); for IA(β3): maximal response of compound compared to maximal response of isoproterenol at 10^-5 M, CHO cells, human β3-AR.

The values below come from US6451814B1, “Heterocyclic β-3 adrenergic receptor agonists” (Wyeth, priority 2000, dated 2002).

Molecules are shown by their SMILES.

T1 sequence (P13945 whole entry): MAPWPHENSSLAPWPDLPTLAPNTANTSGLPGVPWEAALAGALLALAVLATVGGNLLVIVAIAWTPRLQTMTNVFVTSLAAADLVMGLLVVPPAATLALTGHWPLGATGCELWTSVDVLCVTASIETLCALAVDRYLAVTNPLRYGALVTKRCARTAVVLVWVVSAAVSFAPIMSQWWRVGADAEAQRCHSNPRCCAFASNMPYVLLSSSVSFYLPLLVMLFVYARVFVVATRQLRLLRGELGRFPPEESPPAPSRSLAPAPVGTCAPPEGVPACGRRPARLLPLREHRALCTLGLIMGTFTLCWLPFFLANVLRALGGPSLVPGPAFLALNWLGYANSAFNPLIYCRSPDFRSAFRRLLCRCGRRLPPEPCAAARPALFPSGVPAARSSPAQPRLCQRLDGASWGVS

On to `O=C(NCCc1ccc(F)cc1)N1CCC(Nc2ccc(CCNC[C@H](O)COc3ccc(O)cc3)cc2)CC1` [Example 15, 4-(4-{2-[(2S)-2-Hydroxy-3-(4-hydroxy-phenoxy)-propylamino]-ethyl}-phenylamino)-piperidine-1-carboxylic Acid [2-(4-fluoro-phenyl)-ethyl]-amide], for which the melting point – broadly, the temperature, or range, at which the solid turns liquid – fell in the range of 73 to 77 °C. Moreover, in data set [1], the EC50 (commonly the concentration at which the effect is half-maximal) amounted to 34 nM and the “IA(β3)” value is listed as 0.91.
The matching figures for `Cc1ccc(CCCNC(=O)N2CCC(Nc3ccc(CCNC[C@H](O)COc4ccc(O)cc4)cc3)CC2)cc1` [Example 29, 4-(4-{2-[(2S)-2-Hydroxy-3-(4-hydroxy-phenoxy)-propylamino]-ethyl}-phenylamino)-piperidine-1-carboxylic Acid (3-p-tolyl-propyl)-amide]: 69 to 72 °C, 43 nM and 1.
For `CCCCCCCCNC(=O)N1CCC(Nc2ccc(CCNC[C@H](O)COc3ccc(O)c(F)c3)cc2)CC1` [Example 65, 4-(4-{2-[(2S)-3-(3-Fluoro-4-hydroxy-phenoxy)-2-hydroxy-propylamino]-ethyl}-phenylamino)-piperidine-1-carboxylic Acid Octylamide], in that order: 60 to 62 °C, 300 nM and 0.57.
The matching figures for `O=C([C@@H]1CCCN1S(=O)(=O)c1ccc(F)cc1)N1CCC(Nc2ccc(CCNC[C@H](O)COc3ccc(O)cc3)cc2)CC1` [Example 104, [(2S)-1-(4-Fluoro-benzenesulfonyl)-pyrrolidin-2-yl]-[4-(4-{2-[(2S)-2-hydroxy-3-(4-hydroxy-phenoxy)-propylamino]-ethyl}-phenylamino)-piperidin-1-yl]-methanone]: 87 to 89 °C, 85 nM and 0.97.
Turning to `O=C(c1c[nH]c2ccccc12)N1CCC(Nc2ccc(CCNC[C@H](O)COc3ccc(O)cc3)cc2)CC1` [Example 99, [4-(4-{2-[(2S)-2-Hydroxy-3-(4-hydroxy-phenoxy)-propylamino]-ethyl}-phenylamino)-piperidin-1-yl]-(1H-indol-3-yl)-methanone], the melting point is 90 to 92 °C. Besides, in data set [1], the EC50 was found to be 9 nM and the “IA(β3)” value amounted to 1.08.
For `CC(C)CCNC(=O)N1CCC(Nc2ccc(CCNC[C@H](O)COc3ccc(O)cc3)cc2)CC1` [Example 35, 4-(4-{2-[(2S)-2-Hydroxy-3-(4-hydroxy-phenoxy)-propylamino]-ethyl}-phenylamino)-piperidine-1-carboxylic Acid (3-methyl-butyl)-amide], in that order: 72 to 77 °C, 133 nM and 0.96.
For `CCCCCCCCNC(=O)N1CCC(S(=O)(=O)c2ccc(CCNC[C@H](O)COc3ccc(O)c(C)c3)cc2)CC1` [Example 48, 4-(4-{2-[(2S)-2-Hydroxy-3-(4-hydroxy-3-methyl-phenoxy)-propylamino]-ethyl}-benzenesulfonyl)-piperidine-1-carboxylic Acid Octylamide], in that order: 58 to 71 °C, 50 nM and 0.7.
For `O=C(NCC1CCCC1)N1CCC(Nc2ccc(CCNC[C@H](O)COc3ccc(O)cc3)cc2)CC1` [Example 70, 4-(4-{2-[(2S)-2-Hydroxy-3-(4-hydroxy-phenoxy)-propylamino]-ethyl}-phenylamino)-piperidine-1-carboxylic Acid Cyclopentylmethyl-amide], in that order: 76 to 78 °C, 106 nM and 1.
Molecule `O=C(Nc1ccccc1)N1CCC(Sc2ccc(CCNC[C@H](O)COc3ccc(O)cc3)cc2)CC1` [Example 40, 4-(4-{2-[(2S)-2-Hydroxy-3-(4-hydroxy-phenoxy)-propylamino]-ethyl}-phenylsulfanyl)-piperidine-1-carboxylic Acid Phenylamide] came in with a melting point of 121 °C. In data set [1], the EC50 is 101 nM and the “IA(β3)” value worked out at 0.9.
The matching figures for `CCCCCCCCNC(=O)N1CCC(S(=O)(=O)c2ccc(CCNC[C@H](O)COc3ccc(O)cc3)cc2)CC1` [Example 47, 4-(4-{2-[(2S)-2-Hydroxy-3-(4-hydroxy-phenoxy)-propylamino]-ethyl}-benzenesulfonyl)-piperidine-1-carboxylic Acid Octylamide]: 52 to 56 °C, 31 nM and 1.
Molecule `O=C(NCc1ccc(F)cc1)N1CCC(Nc2ccc(OCCNC[C@H](O)COc3ccc(O)cc3)cc2)CC1` [Example 39, 4-(4-{2-[(2S)-2-Hydroxy-3-(4-hydroxy-phenoxy)-propylamino]-ethoxy}-phenylamino)-piperidine-1-carboxylic Acid 4-fluoro-benzylamide] showed a melting point of 73 to 77 °C. Moreover, in data set [1], the EC50 came to 36 nM and the “IA(β3)” value came to 0.9.
For `CCCCCCNC(=O)Nc1ccc(CNC(=O)N2CCC(Nc3ccc(CCNC[C@H](O)COc4ccc(O)cc4)cc3)CC2)cc1` [Example 67, 4-(4-{2-[(2S)-2-Hydroxy-3-(4-hydroxy-phenoxy)-propylamino]-ethyl}-phenylamino)-piperidine-1-carboxylic Acid 4-(3-hexyl-ureido)-benzylamide], in that order: 141 to 143 °C, 29 nM and 0.92.
Turning to `O=C(NCc1cc(F)ccc1F)N1CCC(Nc2ccc(CCNC[C@H](O)COc3ccc(O)cc3)cc2)CC1` [Example 37, 4-(4-{2-[(2S)-2-Hydroxy-3-(4-hydroxy-phenoxy)-propylamino]-ethyl}-phenylamino)-piperidine-1-carboxylic Acid 2,5-difluoro-benzylamide], the melting point lay in the range of 69 to 72 °C. In addition, in data set [1], the “IA(β3)” value is recorded as 0.92.
`CCCCCCCCNC(=O)N1CCC(Nc2ccc(CCNC[C@H](O)COc3ccc(O)c4c3CCC(=O)N4)cc2)CC1` [Example 69, 4-(4-{2-[(2S)-2-Hydroxy-3-(8-hydroxy-2-oxo-1,2,3,4-tetrahydro-quinolin-5-yloxy)-propylamino]-ethyl}-phenylamino)-piperidine-1-carboxylicacid Octylamide]: the melting point lay in the range of 83 to 85 °C. The “IA(β3)” value in data set [1] came to 0.67.
`CCCCCCCCNC(=O)N1CCC(Nc2ccc(CCNC[C@H](O)COc3cccc4[nH]c(=O)[nH]c34)cc2)CC1` [Example 60, 4-(4-{2-[(2S)-2-Hydroxy-3-(2-oxo-2,3-dihydro-1H-benzoimidazol-4-yloxy)-propylamino]-ethyl}-phenylamino)-piperidine-1-carboxylic Acidoctylamide] returned a melting point of 113 to 115 °C. In data set [1], the concentration for a half-maximal effect (EC50) was determined as 12 nM and the “IA(β3)” value stood at 0.45.
For `Cc1ccc(C(=O)CCNC(=O)N2CCC(Nc3ccc(CCNC[C@H](O)COc4ccc(O)cc4)cc3)CC2)cc1` [Example 28], in that order: 85 to 89 °C, 10 nM and 0.76.
